These results are taken from patent publication US20240116985A1, “STAPLED PEPTIDES AND METHODS THEREOF” (priority 2020, published 2024).

Where only a bound is given, the exact number is not on record here.

A word on the IC50: it is the midpoint of a concentration-inhibition curve.

The target of assay [1] is T1, full-length beta-Catenin (Uniprot ID P35222) (Homo sapiens, UniProt P35222).
T1 construct: 10 nM full-length beta-Catenin (Uniprot ID P35222)
T1 sequence (P35222 1-781): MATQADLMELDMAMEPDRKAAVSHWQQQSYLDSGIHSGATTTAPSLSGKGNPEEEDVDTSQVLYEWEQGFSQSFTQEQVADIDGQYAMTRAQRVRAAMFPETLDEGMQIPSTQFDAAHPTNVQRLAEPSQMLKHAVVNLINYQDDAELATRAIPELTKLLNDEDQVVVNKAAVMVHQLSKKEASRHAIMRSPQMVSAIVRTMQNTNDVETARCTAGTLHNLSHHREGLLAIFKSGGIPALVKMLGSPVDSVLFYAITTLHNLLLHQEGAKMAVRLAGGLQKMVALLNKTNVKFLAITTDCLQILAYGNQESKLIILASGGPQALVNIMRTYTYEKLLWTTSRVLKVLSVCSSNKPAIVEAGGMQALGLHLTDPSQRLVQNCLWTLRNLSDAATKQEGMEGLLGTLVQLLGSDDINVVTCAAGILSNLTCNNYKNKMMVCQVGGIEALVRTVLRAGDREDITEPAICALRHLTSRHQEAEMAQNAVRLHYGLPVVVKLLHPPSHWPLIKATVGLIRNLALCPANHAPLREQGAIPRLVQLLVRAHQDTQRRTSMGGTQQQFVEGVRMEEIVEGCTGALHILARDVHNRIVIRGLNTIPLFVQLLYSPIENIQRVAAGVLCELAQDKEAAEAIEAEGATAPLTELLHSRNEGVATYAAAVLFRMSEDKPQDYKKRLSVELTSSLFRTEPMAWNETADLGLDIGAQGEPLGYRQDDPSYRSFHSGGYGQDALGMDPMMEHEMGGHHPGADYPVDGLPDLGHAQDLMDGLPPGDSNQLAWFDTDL
The experiment in a line: Fluorescence polarization IC50 (beta-catenin / 5FAM-TCF4 10-53 competition). The class given is binding. The following applies: fluorescence polarization; read-out: beta-Catenin FP IC50.

In assay [2] the target is T2, beta-catenin/TCF4 engagement (Homo sapiens, UniProt P35222).
T2 construct: expressed in transfected cells; host or cells: HEK293
T2 sequence (P35222 1-781): T1 sequence (P35222 1-781)
The experiment in a line: Nano-BRET target engagement assay (B-cat-Halo & TCF4-Luc in HEK293 cells). The class given is cell-based. The following applies: absolute IC50; read-out: NanoBRET Abs IC50. A general note: In BRET a luciferase serves as donor, and the signal depends on an acceptor being close.

Regarding `CC(=O)N1CCC[C@]12CC=CCCCC1(CCCC=CCCCOC(=O)N3CC[C@@](C(=O)N[C@@H](Cc4ccsc4)C(=O)N[C@@H](Cc4csc5ccccc45)C(=O)N[C@@H](CCC(N)=O)C(N)=O)(C3)NC(=O)[C@H](CC(N)=O)NC(=O)[C@H](Cc3ccccc3)NC(=O)[C@H](C)NC(=O)[C@H](C)NC(=O)[C@H](CC(=O)O)NC(=O)[C@H](CC(=O)O)NC1=O)NC(=O)[C@H](CC(C)(C)C)NC(=O)[C@H](CC(N)=O)NC2=O` (stereo partly drawn) [I-1220, Ac-PL3-Asn-Npg-B5-Asp-Asp-Ala-Ala-Phe-Asn-PyrS2-3Thi-BztA-Gln-NH2], the results for the IC50 in assay [1] and in assay [2] were 11 nM and 17300 nM, respectively.

In the case of `CC(=O)N1CCC[C@]12CC=CCCCC1(CCCC=CCCCOC(=O)N3CC[C@@](C(=O)N[C@@H](Cc4ccsc4)C(=O)N[C@@H](Cc4csc5ccccc45)C(=O)N[C@@H](CCC(N)=O)C(N)=O)(C3)NC(=O)[C@H](CC(C)C)NC(=O)[C@H](Cc3ccccc3)NC(=O)[C@H](C)NC(=O)[C@H](C)NC(=O)[C@H](CC(=O)O)NC(=O)[C@H](CC(=O)O)NC1=O)NC(=O)[C@H](CC(C)(C)C)NC(=O)[C@H](CC(N)=O)NC2=O` (stereo partly drawn) [I-1221, Ac-PL3-Asn-Npg-B5-Asp-Asp-Ala-Ala-Phe-Leu-PyrS2-3Thi-BztA-Gln-NH2], the IC50 in assay [1] is 14 nM; in assay [2], 23400 nM.

On to `CC(=O)N1CCC[C@]12CC=CCCCC1(CCCC=CCCCOC(=O)N3CC[C@@](C(=O)N[C@@H](Cc4ccsc4)C(=O)N[C@@H](Cc4cccc5ccccc45)C(=O)N[C@@H](CCC(N)=O)C(N)=O)(C3)NC(=O)[C@H]([C@@H](C)O)NC(=O)[C@H](Cc3ccccc3)NC(=O)[C@H](C)NC(=O)[C@H](C)NC(=O)[C@H](CC(=O)O)NC(=O)[C@H](CC(=O)O)NC1=O)NC(=O)[C@H](CC(C)(C)C)NC(=O)[C@H](CC(=O)O)NC2=O` (stereo partly drawn) [I-1232, Ac-PL3-Asp-Npg-B5-Asp-Asp-Ala-Ala-Phe-Thr-PyrS2-3Thi-1NapA-Gln-NH2], for which the IC50 in assay [1] was determined as 31 nM; in assay [2], 43300 nM.

As to `CC(=O)N1CCC[C@]12CC=CCCCC1(CCCC=CCCCOC(=O)N3CC[C@@](C(=O)N[C@@H](Cc4ccsc4)C(=O)N[C@@H](Cc4ccc5ccccc5c4)C(=O)N[C@@H](CCC(N)=O)C(N)=O)(C3)NC(=O)[C@H]([C@@H](C)O)NC(=O)[C@H](Cc3ccccc3)NC(=O)[C@H](C)NC(=O)[C@H](C)NC(=O)[C@H](CC(=O)O)NC(=O)[C@H](CC(=O)O)NC1=O)NC(=O)[C@H](CC(C)(C)C)NC(=O)[C@H](CC(=O)O)NC2=O` (stereo partly drawn) [I-1233, Ac-PL3-Asp-Npg-B5-Asp-Asp-Ala-Ala-Phe-Thr-PyrS2-3Thi-2NapA-Gln-NH2], the IC50 worked out at 24 nM in assay [1] and 54500 nM in assay [2].

For `CC(=O)N1CCC[C@]12CC=CCCCC1(CCCC=CCCCOC(=O)N3CC[C@@](C(=O)N[C@@H](Cc4ccsc4)C(=O)N[C@@H](Cc4cccc5ccccc45)C(=O)N[C@@H](CCC(N)=O)C(N)=O)(C3)NC(=O)[C@H](CC(C)C)NC(=O)[C@H](Cc3ccccc3)NC(=O)[C@H](C)NC(=O)[C@H](C)NC(=O)[C@H](CC(=O)O)NC(=O)[C@H](CC(=O)O)NC1=O)NC(=O)[C@H](CC(C)(C)C)NC(=O)[C@H](CC(=O)O)NC2=O` (stereo partly drawn) [I-1234, Ac-PL3-Asp-Npg-B5-Asp-Asp-Ala-Ala-Phe-Leu-PyrS2-3Thi-1NapA-Gln-NH2], the IC50 in assay [1] turned out to be 41 nM; in assay [2], 23900 nM.

On to `CC(=O)N1CCC[C@]12CC=CCCCC1(CCCC=CCCCOC(=O)N3CC[C@@](C(=O)N[C@@H](Cc4ccsc4)C(=O)N[C@@H](Cc4ccc5ccccc5c4)C(=O)N[C@@H](CCC(N)=O)C(N)=O)(C3)NC(=O)[C@H](CC(C)C)NC(=O)[C@H](Cc3ccccc3)NC(=O)[C@H](C)NC(=O)[C@H](C)NC(=O)[C@H](CC(=O)O)NC(=O)[C@H](CC(=O)O)NC1=O)NC(=O)[C@H](CC(C)(C)C)NC(=O)[C@H](CC(=O)O)NC2=O` (stereo partly drawn) [I-1235, Ac-PL3-Asp-Npg-B5-Asp-Asp-Ala-Ala-Phe-Leu-PyrS2-3Thi-2NapA-Gln-NH2], for which the values for the IC50 in assay [1] and in assay [2] were 27 nM and 24800 nM, respectively.

Consider `CC(=O)N1CCC[C@]12CC=CCCCC1(CCCC=CCCCOC(=O)N3CC[C@@](C(=O)N[C@@H](Cc4ccccc4Cl)C(=O)N[C@@H](Cc4cccc5ccccc45)C(=O)N[C@@H](CCC(N)=O)C(N)=O)(C3)NC(=O)[C@H](CC(C)C)NC(=O)[C@H](Cc3ccccc3)NC(=O)[C@H](C)NC(=O)[C@H](C)NC(=O)[C@H](CC(=O)O)NC(=O)[C@H](CC(=O)O)NC1=O)NC(=O)[C@H](CC(C)(C)C)NC(=O)[C@H](CC(=O)O)NC2=O` (stereo partly drawn) [I-1236, Ac-PL3-Asp-Npg-B5-Asp-Asp-Ala-Ala-Phe-Leu-PyrS2-2C1F-1NapA-Gln-NH2], for which the IC50 in assay [1] turned out to be 69 nM; in assay [2], 20900 nM.

As to `CC(=O)N1CCC[C@]12CC=CCCCC1(CCCC=CCCCOC(=O)N3CC[C@@](C(=O)N[C@@H](Cc4ccccc4Cl)C(=O)N[C@@H](Cc4ccc5ccccc5c4)C(=O)N[C@@H](CCC(N)=O)C(N)=O)(C3)NC(=O)[C@H](CC(C)C)NC(=O)[C@H](Cc3ccccc3)NC(=O)[C@H](C)NC(=O)[C@H](C)NC(=O)[C@H](CC(=O)O)NC(=O)[C@H](CC(=O)O)NC1=O)NC(=O)[C@H](CC(C)(C)C)NC(=O)[C@H](CC(=O)O)NC2=O` (stereo partly drawn) [I-1237, Ac-PL3-Asp-Npg-B5-Asp-Asp-Ala-Ala-Phe-Leu-PyrS2-2C1F-2NapA-Gln-NH2], the IC50 in assay [1] stood at 31 nM; in assay [2] it was 39900 nM.

For `CC(=O)N1CCC[C@]12CC=CCCCC1(CCCC=CCCCOC(=O)N3CC[C@@](C(=O)N[C@@H](Cc4ccsc4)C(=O)N[C@@H](Cc4cccc5ccccc45)C(=O)N[C@@H](CO)C(N)=O)(C3)NC(=O)[C@H](CC(C)C)NC(=O)[C@H](Cc3ccccc3)NC(=O)[C@H](C)NC(=O)[C@H](C)NC(=O)[C@H](CC(=O)O)NC(=O)[C@H](CC(=O)O)NC1=O)NC(=O)[C@H](CC(C)(C)C)NC(=O)[C@H](CC(=O)O)NC2=O` (stereo partly drawn) [I-1238, Ac-PL3-Asp-Npg-B5-Asp-Asp-Ala-Ala-Phe-Leu-PyrS2-3Thi-1NapA-Ser-NH2], the IC50 in assay [1] was determined as 44 nM; in assay [2], 23100 nM.

In the case of `CC(=O)N1CCC[C@]12CC=CCCCC1(CCCC=CCCCOC(=O)N3CC[C@@](C(=O)N[C@@H](Cc4ccsc4)C(=O)N[C@@H](Cc4ccc5ccccc5c4)C(=O)N[C@@H](CO)C(N)=O)(C3)NC(=O)[C@H](CC(C)C)NC(=O)[C@H](Cc3ccccc3)NC(=O)[C@H](C)NC(=O)[C@H](C)NC(=O)[C@H](CC(=O)O)NC(=O)[C@H](CC(=O)O)NC1=O)NC(=O)[C@H](CC(C)(C)C)NC(=O)[C@H](CC(=O)O)NC2=O` (stereo partly drawn) [I-1239, Ac-PL3-Asp-Npg-B5-Asp-Asp-Ala-Ala-Phe-Leu-PyrS2-3Thi-2NapA-Ser-NH2], the IC50 in assay [1] amounted to 33 nM; in assay [2], 31800 nM.

As to `CCNC(=O)[C@H](CCC(N)=O)NC(=O)[C@H](Cc1csc2ccccc12)NC(=O)[C@H](Cc1ccccc1Cl)NC(=O)[C@]12CCN(C1)C(=O)OCCCC=CCCCC1(CCCC=CC[C@]3(CCCN3C(C)=O)C(=O)N[C@@H](CC(=O)O)C(=O)N[C@@H](CC(C)(C)C)C(=O)N1)C(=O)N[C@@H](CC(=O)O)C(=O)N[C@@H](CC(=O)O)C(=O)N[C@@H](C)C(=O)N[C@@H](C)C(=O)N[C@@H](Cc1ccccc1)C(=O)N[C@@H](CC(C)C)C(=O)N2` (stereo partly drawn) [I-1248, Ac-PL3-Asp-Npg-B5-Asp-Asp-Ala-Ala-Phe-Leu-PyrS2-2C1F-BztA-Gln-NHEt], the IC50 in assay [1] was 19 nM; in assay [2], 29700 nM.

As to `CC(=O)N1CCC[C@]12CC=CCCCC1(CCCC=CCCCOC(=O)N3CC[C@@](C(=O)N[C@@H](Cc4ccccc4Cl)C(=O)N[C@@H](Cc4csc5ccccc45)C(=O)N[C@H](CO)[C@@H](C)O)(C3)NC(=O)[C@H](CC(C)C)NC(=O)[C@H](Cc3ccccc3)NC(=O)[C@H](C)NC(=O)[C@H](C)NC(=O)[C@H](CC(=O)O)NC(=O)[C@H](CC(=O)O)NC1=O)NC(=O)[C@H](CC(C)(C)C)NC(=O)[C@H](CC(=O)O)NC2=O` (stereo partly drawn) [I-1249, Ac-PL3-Asp-Npg-B5-Asp-Asp-Ala-Ala-Phe-Leu-PyrS2-2C1F-BztA-Thro1], the IC50 was 17 nM in assay [1] and 25200 nM in assay [2].

Regarding `CC(=O)N1CCC[C@]12CC=CCCCC1(CCCC=CCCCOC(=O)N3CC[C@@](C(=O)N[C@@H](Cc4ccccc4Cl)C(=O)N[C@@H](Cc4csc5ccccc45)C(=O)N[C@@H](C)CO)(C3)NC(=O)[C@H](CC(C)C)NC(=O)[C@H](Cc3ccccc3)NC(=O)[C@H](C)NC(=O)[C@H](C)NC(=O)[C@H](CC(=O)O)NC(=O)[C@H](CC(=O)O)NC1=O)NC(=O)[C@H](CC(C)(C)C)NC(=O)[C@H](CC(=O)O)NC2=O` (stereo partly drawn) [I-1250, Ac-PL3-Asp-Npg-B5-Asp-Asp-Ala-Ala-Phe-Leu-PyrS2-2C1F-BztA-Alao1], the values for the 50% inhibitory concentration (IC50) in assay [1] and in assay [2] were 31 nM and more than 20000 nM, respectively.
